Values after ≈ are worked out from the molar mass of the structure shown.
Columns and labels:
pH of formulation = assay type: physicochemical; details: PBS/HPCD (25:75) solution
From the text: (§1) This is illustrated for compound 15 in Table 7.

[1] = Stability of solutions/formulations; assay type: physicochemical; details: for Stability in 10 wt/vol HPCD: PBS/HPCD (25:75) solution; for Stability of HPCD formulation: 10 wt/vol % HPCD, room temperature
From the text: as §1

log P = assay type: physicochemical
Male Sprague-Dawley rats = test: Rat model of cisplatin induced neuropathy (SNCV); assay type: in vivo; details: for efficacy in cisplatin model of peripheral neuropathy: dose not stated
Experimental: (§2) Male Sprague-Dawley rats were administered 2.5 mg/kg cisplatin daily, for five consecutive days to achieve a final cumulative dose of 12.5 mg/kg. On the third day following the final cisplatin injection, animals received compounds SC at concentrations of (3, 10, and 30 mg/kg). Dosing continued Monday through Friday for three consecutive weeks. The effect of cisplatin on peripheral nerve function, and the ability of the compounds to attenuate the cisplatin effect were determined after three weeks of drug treatment by measuring the sensory nerve conduction velocity (SNCV) in the caudal nerve of the tail. Stimulating electrodes were used to deliver 2 mA pulses once per second for 1.5 min. The resulting compound sensory nerve action potentials were averaged, and the mean response onset time was determined from the averaged response. Two mean response times were determined, the second being 20 mm distal from the first. The difference in onset time between the two recordings was determined and used to calculate the conductance velocity.
Male Sprague-Dawley rats (weighing 200-225 g on arrival) were intraperitoneally administered 2.5 mg/kg cisplatin daily, for five consecutive days to achieve a final cumulative dose of 12.5 mg/kg. On the third day following the final cisplatin injection, animals received compounds SC at concentrations of (3, 10, and 30 mg/kg). Dosing continued Monday through Friday for three consecutive weeks.
as §2, with “The” for “Male Sprague-Dawley rats were administered 2.5 mg/kg cisplatin daily, for five consecutive days to achieve a final cumulative dose of 12.5 mg/kg. On the third day following the final cisplatin injection, animals received compounds SC at concentrations of (3, 10, and 30 mg/kg). Dosing continued Monday through Friday for three consecutive weeks. The”, “velocity. [formula]” for “velocity.”
The results of these experiments were combined, and ANOVA was performed, followed by a Fisher LSD test.

[2] = Solubility in water and formulations; details: for Solubility in 10 wt/vol HPCD: PBS/HPCD (25:75) solution; for Solubility 10 wt/vol % HPCD water: Na salts in aqueous 10 wt/vol % HPCD; for Solubility Water: Na salts in water; for solubility in water or in 10% HPCD: TFA salts, not neutralized
Experimental: (§3) Alternatively, the sodium salt can be prepared in situ by dissolving the free acid in phosphate buffered saline (PBS) that has been buffered to a pH of 7.4. The solubility and stability of these solutions can be improved by the use of an aqueous soluble co-solvent such as, but not limited to HPCD. This solubility can be further improved by the addition of surfactants such as PEG 400. In general, the free acid is suspended in 10 wt/vol % HPDC (10 g dissolved in 100 mL water) and treated with 0.5M PBS (pH 7.4) such that the volumes are in a ratio of 75:25.

physchem = details: water
Experimental: as §3

CC(=O)NS(=O)(=O)c1nn2cc(-c3ccc(N4CCOCC4)cc3)nc2s1 [Compound 31]
pH (pH of formulation): 7.4
Stability in 10 wt/vol HPCD [1]: >4 weeks
log P (log P): 2.48
Cisplatin-induced attenuation of SNCV (Male Sprague-Dawley rats; 30 mg/kg SC): protective activity
Solubility in 10 wt/vol HPCD [2]: 10000 µg/mL (≈ 24500 µM)

COCC(=O)NS(=O)(=O)c1nn2cc(-c3ccc(N4CCOCC4)cc3)nc2s1 [Compound 32]
log P (log P): 2.14

COCCOCCOCC(=O)NS(=O)(=O)c1nn2cc(-c3ccc(-c4cccc(C(F)(F)F)c4)cc3)nc2s1 [Compound 42]
pH (pH of formulation): 7.4
Stability in 10 wt/vol HPCD [1]: >4 weeks
log P (log P): 4.35
Solubility in 10 wt/vol HPCD [2]: 10000 µg/mL (≈ 17100 µM)

COCCOCC(=O)NS(=O)(=O)c1nn2cc(-c3ccc(-c4cccc(C(F)(F)F)c4)cc3)nc2s1 [Compound 41]
pH (pH of formulation): 7.4
Stability in 10 wt/vol HPCD [1]: >1 weeks
log P (log P): 4.96
Solubility in 10 wt/vol HPCD [2]: 10000 µg/mL (≈ 18500 µM)

CC(=O)NCC(=O)NS(=O)(=O)c1nn2cc(-c3ccccc3)nc2s1 [Compound 20]
pH (pH of formulation): 7.4
Stability in 10 wt/vol HPCD [1]: >4 weeks
log P (log P): 1.45
Solubility in 10 wt/vol HPCD [2]: 10000 µg/mL (≈ 26400 µM)

[NH-]S(=O)(=O)c1nn2cc(-c3ccc(-c4cccc(C(F)(F)F)c4)cc3)nc2s1.[Na+] [Compound 12]
Stability of HPCD formulation [1]: >14 days
Cisplatin-induced loss in SNCV (Male Sprague-Dawley rats; 10-30 mg/kg, data not shown): protective
efficacy in cisplatin model of peripheral neuropathy (Male Sprague-Dawley rats): efficacy
Solubility 10 wt/vol % HPCD water [2]: 4000 µg/mL
Solubility Water [2]: 1400 µg/mL

CCCC(=O)NS(=O)(=O)c1nn2cc(-c3ccc(-c4cccc(C(F)(F)F)c4)cc3)nc2s1 [Compound 40]
pH (pH of formulation): 7.4
Stability in 10 wt/vol HPCD [1]: >1 weeks
log P (log P): 6.26
Solubility in 10 wt/vol HPCD [2]: 5000 µg/mL (≈ 10100 µM)

CSCCC(N)C(=O)NS(=O)(=O)c1nn2cc(-c3ccccc3)nc2s1 (stereo not drawn) [Compound 24]
solubility in water or in 10% HPCD [2]: not soluble

[NH-]S(=O)(=O)c1nn2cc(-c3ccc(Oc4ccc(Cl)cc4)cc3)nc2s1.[Na+] [Compound 14]
Stability of HPCD formulation [1]: >14 days
Cisplatin-induced attenuation of SNCV (Male Sprague-Dawley rats; 10 mg/kg): prevented
Cisplatin-induced loss in SNCV (Male Sprague-Dawley rats; 10 and 30 mg/kg): prevented
efficacy in cisplatin model of peripheral neuropathy (Male Sprague-Dawley rats): efficacy
Solubility 10 wt/vol % HPCD water [2]: 20000 µg/mL
Solubility Water [2]: 10000 µg/mL

NS(=O)(=O)c1nn2cc(C34CC5CC(CC(C5)C3)C4)nc2s1 [Compound 92]
solubility (physchem): < 500 µg/mL

NS(=O)(=O)c1nn2cc(-c3ccc(OCCC(F)(F)F)cc3)nc2s1 [Compound 70]
solubility (physchem): < 500 µg/mL

CC(C)(C)OC(=O)NS(=O)(=O)c1nn2cc(-c3ccc(-c4cccc(C(F)(F)F)c4)cc3)nc2s1 [Compound 43]
pH (pH of formulation): 7.4
Stability in 10 wt/vol HPCD [1]: >1 weeks
log P (log P): 5.76
Solubility in 10 wt/vol HPCD [2]: 5000 µg/mL (≈ 9530 µM)

NS(=O)(=O)c1nn2cc(-c3ccc4ccccc4c3)nc2s1 [Compound 94]
solubility (physchem): < 500 µg/mL

[NH-]S(=O)(=O)c1nn2cc(-c3ccc(N4CCOCC4)cc3)nc2s1.[Na+] [Compound 6]
Stability of HPCD formulation [1]: >14 days
Cisplatin-induced loss in SNCV (Male Sprague-Dawley rats; 10-30 mg/kg, data not shown): protective
efficacy in cisplatin model of peripheral neuropathy (Male Sprague-Dawley rats): efficacy
Solubility 10 wt/vol % HPCD water [2]: 15000 µg/mL
Solubility Water [2]: 2300 µg/mL

NS(=O)(=O)c1nn2cc(-c3ccc(Oc4ccc([N+](=O)[O-])cc4)cc3)nc2s1 [Compound 120]
solubility (physchem): < 500 µg/mL

NS(=O)(=O)c1nn2cc(-c3ccc4c(c3)OCO4)nc2s1 [Compound 65]
solubility (physchem): < 500 µg/mL

O=C(O)CCC(=O)NS(=O)(=O)c1nn2cc(-c3ccccc3)nc2s1 [Compound 22]
pH (pH of formulation): 7.4
Stability in 10 wt/vol HPCD [1]: >4 weeks
log P (log P): 2.26
Solubility in 10 wt/vol HPCD [2]: 8000 µg/mL (≈ 21000 µM)

CNS(=O)(=O)c1nn2cc(-c3ccccc3)nc2s1 [Compound 140]
solubility (physchem): < 500 µg/mL

COc1ccccc1-c1ccc(-c2cn3nc(S(N)(=O)=O)sc3n2)cc1 [Compound 100]
solubility (physchem): < 500 µg/mL

CSCCC(NC(=O)OC(C)(C)C)C(=O)NS(=O)(=O)c1nn2cc(-c3ccccc3)nc2s1 (stereo not drawn) [Compound 23]
pH (pH of formulation): 7.4
Stability in 10 wt/vol HPCD [1]: >1 weeks
log P (log P): 3.37
Solubility in 10 wt/vol HPCD [2]: 5000 µg/mL (≈ 9770 µM)

COc1cccc(-c2cn3nc(S(N)(=O)=O)sc3n2)c1 [Compound 61]
solubility (physchem): < 500 µg/mL

O=C(NS(=O)(=O)c1nn2cc(-c3ccccc3)nc2s1)C1CCCN1 (stereo not drawn) [Compound 26]
solubility in water or in 10% HPCD [2]: not soluble

CC(C)(C)OC(=O)NCC(=O)NS(=O)(=O)c1nn2cc(-c3ccccc3)nc2s1 [Compound 18]
pH (pH of formulation): 7.4
Stability in 10 wt/vol HPCD [1]: >4 weeks
log P (log P): 3.32
Solubility in 10 wt/vol HPCD [2]: 10000 µg/mL (≈ 22900 µM)

CCCC(=O)NS(=O)(=O)c1nn2cc(-c3ccccc3)nc2s1 [Compound 16]
pH (pH of formulation): 7.4
Stability in 10 wt/vol HPCD [1]: >4 weeks
log P (log P): 3.67
Solubility in 10 wt/vol HPCD [2]: 4000 µg/mL (≈ 11400 µM)

COc1ccc(-c2cn3nc(S(N)(=O)=O)sc3n2)cc1 [Compound 62]
solubility (physchem): < 500 µg/mL

NS(=O)(=O)c1nn2cc(-c3ccc(Cl)cc3)nc2s1 [Compound 56]
solubility (physchem): < 500 µg/mL

NS(=O)(=O)c1nn2cc(-c3ccc(C(F)(F)F)cc3)nc2s1 [Compound 84]
solubility (physchem): < 500 µg/mL

NS(=O)(=O)c1nn2cc(-c3cccc([N+](=O)[O-])c3)nc2s1 [Compound 74]
solubility (physchem): < 500 µg/mL

NS(=O)(=O)c1nn2cc(-c3ccc(Cl)c(Cl)c3)nc2s1 [Compound 57]
solubility (physchem): < 500 µg/mL

CC(=O)N[C@H](C)c1ccc(-c2cn3nc(S(N)(=O)=O)sc3n2)cc1 [Compound 90]
solubility (physchem): < 500 µg/mL

NS(=O)(=O)c1nn2cc(-c3ccccc3F)nc2s1 [Compound 52]
solubility (physchem): < 500 µg/mL

NS(=O)(=O)c1nn2cc(-c3cnccn3)nc2s1 [Compound 126]
solubility (physchem): < 500 µg/mL

NS(=O)(=O)c1nn2cc(-c3ccc(Oc4ccccc4)cc3)nc2s1 [Compound 110]
solubility (physchem): < 500 µg/mL

N#Cc1ccc(-c2cn3nc(S(N)(=O)=O)sc3n2)cc1 [Compound 78]
solubility (physchem): < 500 µg/mL

COCC(=O)NS(=O)(=O)c1nn2cc(-c3ccc(Oc4ccc(Cl)cc4)cc3)nc2s1 [Compound 45]
Cisplatin-induced attenuation of SNCV (Male Sprague-Dawley rats; 30 mg/kg SC): protective activity

COc1ccc(OC)c(-c2cn3nc(S(N)(=O)=O)sc3n2)c1 [Compound 63]
solubility (physchem): < 500 µg/mL

CC(=O)NS(=O)(=O)c1nn2cc(-c3ccc(-c4cccc(C(F)(F)F)c4)cc3)nc2s1 [Compound 37]
pH (pH of formulation): 7.4
Stability in 10 wt/vol HPCD [1]: >1 weeks
log P (log P): 5.19
dissolution ([2]; 25 mg in 1 mL PEG 400/ethanol (50:50) + ethanolamine (20 μL)): clear solution
Solubility in 10 wt/vol HPCD [2]: 10000 µg/mL (≈ 21400 µM)

NS(=O)(=O)c1nn2cc(-c3ccccn3)nc2s1 [Compound 123]
solubility (physchem): < 500 µg/mL

Cc1c(-c2cn3nc(S(N)(=O)=O)sc3n2)cnn1-c1ccccc1 [Compound 137]
solubility (physchem): < 500 µg/mL

NS(=O)(=O)c1nn2cc(-c3ccc(-c4ccc5c(c4)OCO5)cc3)nc2s1 [Compound 103]
solubility (physchem): < 500 µg/mL

NS(=O)(=O)c1nn2cc(-c3nccs3)nc2s1 [Compound 138]
solubility (physchem): < 500 µg/mL

COc1ccc(-c2cn3nc(S(N)(=O)=O)sc3n2)c(OC)c1 [Compound 64]
solubility (physchem): < 500 µg/mL

From patent US20070112043A1, “Acylated and non-acylated imidazo[2,1-b]-1,3,4,-thiadiazole-2-sulfonamides, and uses thereof” (priority 2003, published 2007)
